In publication PMC10065799, “High-throughput profiling of sequence recognition by tyrosine kinases and SH2 domains using bacterial peptide display” (eLife, 2023):
One block for each substance: values may come before it.

Tests used:
[1] = tested on: Fer kinase domain; assay: pTyr-Var library bacterial peptide display kinase screen (enrichment scores); format: biochemical, mouse; details: sheet "Fer";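 note: log2 fold change in enrichment of variant over reference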
[2] = target: T1, c-Src kinase domain (Homo sapiens, UniProt P12931); assay: as above; format: biochemical; details: sheet "Src"
[3] = tested on: EPHB2 kinase domain; assay: as above; format: biochemical, human; details: sheet EPHB2;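 note: log2 fold change in enrichment of variant over reference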
[4] = tested on: EPHB1 kinase domain; assay: as above; format: biochemical, human; details: for Screen: sheet EPHB1, effect of the variant peptide relative to its reference peptide in the pTyr-Var library screen (enrichment scores); for Screen (variant relative to reference peptide, measured in the pTyr-Var library screen): sheet "EPHB1", variant seq vs reference seq, bacterial peptide display enrichment
[5] = target: T1, c-Src kinase domain; assay: ADP-Quest continuous fluorimetric kinase assay (Michaelis-Menten parameters and initial rates); format: biochemical; details: ADP-Quest assay, c-Src kinase domain 10 nM, 100 μM ATP, 37 °C; three to five replicates; error = standard error of global Michaelis-Menten fit
Excerpt: A fluorescence-based assay from Eurofins (ADP Quest) was used to measure the Michaelis-Menten kinetic parameters for phosphorylation of the consensus peptides by purified tyrosine kinase domains. In this assay, ADP production as a result of kinase activity is coupled to the production of resorufin, a fluorophore that emits signal at 590 nm. For all experiments, the assay reactions were set up as described in the provided assay kit protocol, in a 384 well plate format. The peptide solutions were serially diluted in 100 mM Tris, pH 8.0, and the kinases were diluted to 50 nM in buffer (10 mM HEPES, 100 mM NaCl, 1 mM TCEP, 5 mM MgCl2, 10% (v/v) glycerol). The final reaction mixtures contained 10 nM of kinase with 100 μM of ATP. Reactions were initiated with the addition of 1 mM ATP into a 50 μL reaction mixture for a final concentration of 100 μM ATP. Phosphorylation reaction progress was monitored by measuring fluorescence at excitation 530 nm and emission 590 nm every 2 min at 37 °C on a plate reader (BioTek Synergy Neo 2). The fluorescence units (RFU) were converted to μM ADP by comparison to a standard curve, and the initial rates were extracted from the linear regime of the reaction progress curves. Initial rates were also measured for samples containing each kinase but lacking a peptide substrate, to account for background ATP hydrolysis. This background rate was subtracted from the rates measured in the presence of peptide. The subtracted rates were plotted as a function of substrate concentration and fit to the Michaelis-Menten equation to extract kcat and KM values.

[6] = target: T2, c-Abl kinase domain (Mus musculus, UniProt P00520); assay: pTyr-Var library bacterial peptide display kinase screen (enrichment scores); format: biochemical;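 note: log2 fold change in enrichment of variant over reference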
T2 sequence (P00520 242-493 limits assumed): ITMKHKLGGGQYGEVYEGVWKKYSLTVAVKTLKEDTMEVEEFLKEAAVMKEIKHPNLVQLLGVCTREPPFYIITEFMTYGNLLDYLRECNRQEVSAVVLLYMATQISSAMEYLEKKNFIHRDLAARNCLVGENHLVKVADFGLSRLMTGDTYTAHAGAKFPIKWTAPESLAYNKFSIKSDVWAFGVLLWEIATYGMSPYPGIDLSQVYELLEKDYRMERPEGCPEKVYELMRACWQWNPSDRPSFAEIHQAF

[7] = target: T1, c-Src kinase domain; assay: RP-HPLC assay to measure peptide phosphorylation kinetics; format: biochemical; details: purified peptide substrate
Protocol: To validate the enrichment scores observed in the c-Src screening data, the phosphorylation rates were measured in vitro with the purified catalytic domain of c-Src and synthetic 11-residue peptides derived from sequences in the pTyr-Var library. […] Reactions were initiated by adding 1 mM ATP. At various time points, 100 μL aliquots were removed and quenched by the addition of EDTA to a final concentration of 25 mM. Each time point sample was analyzed by analytical RP-HPLC, monitoring absorbance at 214 nm. Forty μL of each time point was injected onto a C18 column (ZORBAX 300 SB-C18, 5 μm, 4.6x150 mm). The solvent system used was water with 0.1% trifluoroacetic acid (solvent A) and acetonitrile with 0.1% trifluoroacetic acid (solvent B). […] The fractional product peak area was plotted as a function of reaction time, and the initial linear regime of this plot was fitted to a straight line to determine a reaction rate. Rates were corrected for substrate and enzyme concentration. Reactions were done in triplicate or quadruplicate.

[8] = value of the variant peptide against its reference peptide in the pTyr-Var library screen with Fer
[9] = variant peptide versus its reference peptide in the pTyr-Var library screen
[10] = effect of variant peptide relative to its reference peptide in the pTyr-Var library screen (enrichment scores)
[11] = variant peptide relative to its reference peptide, pTyr-Var library screen enrichment
[12] = fig5-data2, sheet "Abl", Screen for the variant/reference peptide pair, pTyr-Var library
[13] = effect of the variant peptide relative to its reference peptide in the pTyr-Var library screen
[14] = sheet "Abl", effect of variant peptide relative to its reference peptide in pTyr-Var library screen (enrichment)
[15] = effect of the variant relative to its reference peptide in the pTyr-Var library screen

Substance: DAKTIYDFTDT [PDK1_Y136_A134T]
Screen [1, 8]: -1.776
Screen [2, 9]: -0.8148
Screen [3, 10]: -1.665

Substance: PFGQWYESHFA [RPS8_Y113_R110G_YF]
Screen [1, 11]: 2.253
Screen [2, 9]: 2.137
Screen [4]: 2.825
Screen [3, 10]: 2.604

Km [5]: 97 ± 10 µM
kcat [5]: 4.4±0.2 s^–1
Substance: Ac-GCDECIYGMFPFRRRG-NH2 [Src Consensus (P-5C, D+1 G), Src Consensus-related peptide with +1 Gly]

Screen [6, 12]: 0.1709
Screen [4]: 0.7871
Screen [3, 10]: 0.8579
Substance: PMFHSYVSLPF [PLXNA2_Y293_K289M]

Substance: LDTFIYDAAVL [GRIN2A_Y730_A727T]
Screen [1, 8]: -0.1876
Screen [2, 13]: 0.2901
Screen [4]: -0.673
Screen [3, 10]: -0.5027

Substance: RPPELYALMSD [ZAP70_Y569_C564R]
Screen [6, 14]: 3.577
Screen [2, 9]: 1.184
Screen (variant relative to reference peptide, measured in the pTyr-Var library screen) [4]: 2.108
Screen [3, 15]: 1.779

Substance: QSSALYEDHFL [ASS1_Y83_R86H_YF]
Screen [1, 8]: 0.8014
Screen [2, 13]: 0.1278
Screen [4]: 0.2982
Screen [3, 10]: 1.176

Phosphorylation Rate [7]: 0.219 s⁻¹
Substance: Ac-IGEGTYRTVFK-NH2 [CDK5-Y15-G16R]

Substance: IEEGTYGVAFR [CDK11B_Y449_V452A_YF]
Screen [1, 8]: -0.4849
Screen [2, 13]: -0.1184
Screen [4]: -1.792
Screen [3, 10]: -1.778

Substance: FQNSLYAPDFS [FAM92A_Y226_R222Q_YF]
Screen [1, 8]: 1.873
Screen [2, 13]: 0.8192
Screen [4]: 0.991
Screen [3, 10]: 1.651

Screen [1, 8]: -1.394
Screen [4]: -1.027
Screen [3, 10]: -1.191
Substance: RGKLFYQEVPA [METTL11B_Y76_A72G]

Substance: ACCLLYCGDVV [TUBA4A_Y319_R320C]
Screen [1, 11]: 2.253
Screen [6, 14]: -0.5266
Screen [2, 9]: -0.4326
Screen (variant relative to reference peptide, measured in the pTyr-Var library screen) [4]: 4.284
Screen [3, 15]: 3.709

Substance: NTFENYWPFFQ [GATM_Y103_K102N_YF]
Screen [2, 13]: 2.256
Screen [4]: 4.344
Screen [3, 10]: 3.46

Substance: ITNLLYHLVGW [GBA_Y412_V414L]
Screen [1, 8]: 0.1481
Screen [2, 13]: -0.6312
Screen [4]: -1.095
Screen [3, 10]: -1.708

Substance: QKTGDYFDLFG [PTPN11_Y62_N58K_YF]
Screen [2, 9]: -1.277
Screen [4]: -1.083
Screen [3, 10]: -1.66

Substance: LFEDCYLLGTS [ASS1_Y87_R86C_YF]
Screen [2, 13]: 2.612
Screen [4]: -1.767
Screen [3, 10]: -0.8272

Phosphorylation Rate [7]: 2.121 s⁻¹
Substance: Ac-SGDITYGQFAQ-NH2 [PLCG1_Y210]

Substance: CGPLLYGLVHQ [PRKCG_Y122_S119P]
Screen [1, 8]: -0.6662
Screen [2, 9]: -0.4426
Screen [4]: 0.3123
Screen [3, 10]: -0.1456

Substance: HNLDFYKMTTN [FGFR3_Y648_K650M_YF]
Screen [1, 8]: -0.9943
Screen [2, 13]: -2.668
Screen [4]: -1.054
Screen [3, 10]: 0.0281

Substance: SPFMLYQFLKQ [RPAP3_Y567_D564Y_YF]
Screen [1, 11]: -1.212
Screen [2, 9]: -1.029
Screen [4]: 2.24
Screen [3, 10]: 1.841

Substance: LNEAVYTKMMT [G6PD_Y401_P396L]
Screen [1, 8]: 1.268
Screen [2, 13]: 0.3249
Screen [4]: 1.441
Screen [3, 10]: 2.035

Substance: PFRKLYESVKK [MKI67_Y241_W238R]
Screen [1, 8]: -1.869
Screen [2, 13]: -1.776
Screen [4]: -3.688
Screen [3, 10]: -2.876

Screen [1, 8]: 1.127
Screen [4]: 2.862
Screen [3, 10]: 2.625
Substance: KLPFLYDDPFS [GPX2_Y127_P126L_YF]

Substance: AQQPIYIRVEG [NLRP7_Y318_V319I]
Screen [2, 9]: -2.214
Screen [4]: -2.185
Screen [3, 10]: -2.079

Screen [4]: 2.34
Screen [3, 10]: 2.182
Substance: VGTKWYMAPEV [ACVRL1_Y375_R374W]

Substance: LLIMEYAKFGS [RET_Y806_V804M_YF]
Screen [2, 9]: 0.7851
Screen [4]: -1.009
Screen [3, 10]: -0.7138

Screen [4]: 0.4118
Screen [3, 10]: 0.3975
Substance: RQNQEYEILMD [KRT39_Y379_L383M]

Substance: KVASVYEALGF [NT5C_Y65_P68L]
Screen [1, 8]: -0.5868
Screen [2, 9]: 0.2966
Screen [4]: 1.12
Screen [3, 10]: -0.4355

Screen [1, 11]: 2.023
Screen (variant relative to reference peptide, measured in the pTyr-Var library screen) [4]: 4.533
Screen [3, 15]: 4.793
Substance: MVIPNYSSWTE [UROC1_Y185_R188W]

Substance: RGDCTYAPLLG [AR_Y269_M268T]
Screen [1, 8]: -1.638
Screen [2, 13]: 0.1809
Screen [4]: 0.2378
Screen [3, 10]: 0.1305

Substance: KLVQLYDVCTK [BTK_Y461_G462D]
Screen [1, 8]: 2.534
Screen [2, 13]: 0.2967
Screen [4]: 3.126
Screen [3, 10]: 2.907

Screen [1, 11]: 1.389
Screen [6, 14]: 2.922
Screen [3, 15]: 1.539
Substance: QLQQAYQEAFE [YWHAZ_Y149_S145L]

Substance: PLDNLYAEPAV [PRPS1_Y146_V142L]
Screen [1, 8]: 0.1056
Screen [2, 9]: 0.376
Screen [4]: 0.8585
Screen [3, 10]: 0.4426

Substance: GQRDLYSGLNE [CD3E_Y199_Q204E]
Screen [1, 8]: -1.295
Screen [2, 13]: -0.3824
Screen [4]: -0.9821
Screen [3, 10]: -0.7383

Substance: LENSTYQFIHV [CRB1_Y760_R764H_YF]
Screen [1, 8]: 0.6151
Screen [6, 12]: -1.13
Screen [2, 13]: 0.1019
Screen [4]: 0.7891
Screen [3, 10]: 0.62
